This experiment concerns phosphorylated H3 (pH3). Nature of the experiment: Western blotting of mitotic marker. Type of experiment: cell-based, human. Conditions: U266, MM.1S and CD138+ primary cells; 24 h. The method, then:
Cell pellets were lysed in RIPA buffer containing 50 mM Tris pH 8.0, 150 mM NaCl, 0.1% SDS, 0.5% deoxycholate, 1% NP-40, 1 mM DTT, 1 mM NaF, 1 mM sodium vanadate, and protease inhibitors cocktail (Sigma). For immunoprecipitations, cells were lysed on ice for 15 minutes in RIPA buffer. Lysates were centrifuged. The supernatant was incubated with indicated antibodies overnight, after which protein A/G Plus beads (Santa Cruz Biotechnology) were added and incubated for 3 h. The beads were washed 4 times in RIPA buffer. Then the beads were resuspended in 1× sample buffer and boiled for 3 min. Protein extracts were quantitated and loaded on 8% to 12% sodium dodecyl sulfate polyacrylamide gel, electrophoresed, and transferred to a nitrocellulose membrane (Whatman). The membrane was incubated with primary antibody, washed, and incubated with horseradish peroxidase (HRP)–conjugated secondary antibody (Pierce). Detection was performed by using a chemiluminescent western detection kit (Cell Signaling). […]
Figure 2 6-OAP induces mitotic arrest in MM cells. […] Cell cycle distribution was determined by flow cytometry. […] Cell cycle distribution was determined by flow cytometry. […]
A general note: Immunoblotting shows a protein as a band on a membrane.

Consider one compound from PMC3130785, “Small Compound 6-O-Angeloylplenolin Induces Mitotic Arrest and Exhibits Therapeutic Potentials in Multiple Myeloma” (PLoS ONE, 2011).

As for `CC=C(C)C(=O)OC1C2C(CC(C)C3C=CC(=O)C31C)OC(=O)C2C` (stereo not shown) [6-OAP, 6-O-angeloylplenolin], the “expression of pH3” value is given as “up-regulated pH3”.
